Structures can show the parent of a compound that is named as a salt. Marks after values point to notes of the source that are not given here.
Columns and labels:
[1] = Solubility of active ingredients in liquid carriers, transmissivity measurement with a crystallizer multi-reactor
Description: To determine the solubility of various active ingredients that could be incorporated into pet food, each active ingredient may be evaluated in a temperature dependent manner using a crystallizer multi-reactor with transmissivity measurements.
Carrier of interest may be prepared as needed and specific active ingredients may be added to the solvents to form mixtures of the solvent and active. […] If mixing and/or heating fails to provide visual evidence that an active ingredient dissolves in the test solvent carrier no further solubility testing of the active ingredient with the test carrier can be conducted.
For active ingredients that appear to at least partially dissolve in a given carrier, the mixtures can be analyzed by transmissivity measurement using a crystallizer multi-reactor. Prior to the transmissivity measurement using a crystallizer multi-reactor with transmissivity capability, carriers may be prepared, as needed, and subsequently tested using a heating cycle over a range of temperatures. The transmissivity data can be recorded over the temperature ranges and used as a blank or reference in subsequent transmissivity measurements.
Typically, initial samples including the active ingredient of interest and the test carrier are not readily soluble at room temperature and may register low percent transmissivity along with visible observations of insolubilized material. When resulting admixtures are heated at a specific heating rate, the percent transmissivity increases as the active ingredient is solubilized. When the solids are completely dissolved, the transmissivity is measured as 100%. When the resulting heated admixture is subsequently cooled, solids may precipitate at a given temperature and cooling rate, which results in a decrease in percent transmissivity. The temperature and time at which precipitation occurs with a specific admixture provides additional information regarding solubility and the combination of parameters needed for selection to prepare feed with the active ingredient of interest.
Carriers include, refined chicken fat, refined chicken fat including lecithin, refined chicken fat including Tween80, refined chicken fat including triacetin, and triacetin may be used as carrier systems over a range of temperatures, ramp rates, stirring rates, and cooling cycles to evaluate stability.
Admixture experiments may be performed with active ingredients including, e.g., mivorilaner, sarolaner, lotilaner, fluralaner, afoxolaner, spinosad, pyrantel, praziquantel, fenbendazole, diethylcarbamazine, moxidectin, gabapentin and metformin in combination with different test carriers using the methodology described herein. “Apparent solubility” is a term used herein to denote that the admixture may be a true solution, i.e., an admixture in which the active ingredient completely dissolves into the carrier liquid. However, the term “apparent solubility” also can include suspensions and emulsions, for example, which resemble a true solution but are not.

[2] = Solubility of mivorilaner in carriers under isothermal conditions; assay type: physicochemical
Description: The solubility of mivorilaner in a number of carriers was also measured under isothermal conditions.

Compound	Measured Concentration ([1]; carrier CF, Up to 60 ° C.) [mg/g]	Measured Concentration ([1]; carrier Triacetin, 20-22 ° C.) [mg/g]	Solubility in a combination of chicken fat and lecithin ([2]; chicken fat and lecithin)	Solubility observation, chicken fat only ([2]; chicken fat only, all experiments)	Time to Achieve Apparent Solubility ([1]; carrier Chicken Fat + Tween 80, 2.0 mg/g, 40 ° C.)	Effect of the presence of lecithin on solubility ([1]; chicken fat vs chicken fat including 4% (w/w) lecithin, 2-16 mg/g, 0.1° C./minute, 39° C. to 60° C., FIG. 5)	Time to Achieve Apparent Solubility ([1]; carrier CF, Up to 60 ° C.)
CN(C)C(=N)N=C(N)N [Metformin-HCI, Metformin HCl]	0	<1	–	–	–	–	–
O=C(CNC(=O)c1sc(C2=NO[C@@](c3cc(Cl)c(F)c(Cl)c3)(C(F)(F)F)C2)c2c1CCC2)NCC(F)F [Mivorilaner]	–	–	soluble over a wide range of concentrations and temperatures	visible detection of agglomerates was noted in all experiments	1.5** hours	increased mivorilaner solubility	–
NCC1(CC(=O)O)CCCCC1 [Gabapentin]	0	<1	–	–	–	–	Insoluble

Reference: patent publication US20260026529A1, “MATERIALS AND METHODS FOR THE MANUFACTURE OF AN ANIMAL FEED” (In the Bowl Animal Health, Inc., priority 2023, published 2026)
